According to ChEMBL document CHEMBL5257125, “Discovery of pyrido[4,3-d]pyrimidinone derivatives as novel Wee1 inhibitors” (Bioorg Med Chem, 2023):

Columns and labels:
[1] = target: Wee1-like protein kinase (Homo sapiens, UniProt P30291); assay: Inhibition of recombinant human Wee1 (214 to end residues) incubated for 1 hr in presence of tracer 178 by fluorescence based assay
[2] = tested on: MV4-11; assay: Antiproliferative activity against human MV4-11 cells incubated for 72 hrs by Celltiter-glo assay; type: functional, cell-based; details: MV4-11, 72 h
[3] = tested on: T47D; assay: Antiproliferative activity against human T47D cells incubated for 72 hrs by Celltiter-glo assay; type: functional, cell-based
[4] = Metabolic stability in mouse liver microsomes assessed as parent compound remaining preincubated with NADPH for 5 mins followed by compound addition and measured upto 90 mins by LC-MS/MS analysis; type: ADME, Microsome; details: read-out: Stability

Chain of Wee1-like protein kinase (P30291 whole entry): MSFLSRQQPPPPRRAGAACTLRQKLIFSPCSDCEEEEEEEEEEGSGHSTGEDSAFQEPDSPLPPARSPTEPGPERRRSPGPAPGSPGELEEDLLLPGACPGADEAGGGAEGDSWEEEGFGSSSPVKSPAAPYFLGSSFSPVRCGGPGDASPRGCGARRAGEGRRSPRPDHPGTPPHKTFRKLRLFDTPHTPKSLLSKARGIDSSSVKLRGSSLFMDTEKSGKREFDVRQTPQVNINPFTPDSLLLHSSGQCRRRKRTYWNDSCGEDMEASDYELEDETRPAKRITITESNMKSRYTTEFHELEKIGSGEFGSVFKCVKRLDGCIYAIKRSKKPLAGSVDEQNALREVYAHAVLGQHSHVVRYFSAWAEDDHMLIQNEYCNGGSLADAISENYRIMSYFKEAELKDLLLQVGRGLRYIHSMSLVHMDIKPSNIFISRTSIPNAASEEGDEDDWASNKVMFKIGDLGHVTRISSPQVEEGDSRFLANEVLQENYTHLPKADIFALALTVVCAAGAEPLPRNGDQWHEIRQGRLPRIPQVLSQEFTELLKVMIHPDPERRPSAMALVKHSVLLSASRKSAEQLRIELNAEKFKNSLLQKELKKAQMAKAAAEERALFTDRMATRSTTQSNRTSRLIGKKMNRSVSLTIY

Structure (SMILES)	IC50 [1]	IC50 [2]	IC50 [3]	remaining at 1.5 h [4]
CN(C)CCOc1ccc(Nc2cc3ncn(-c4c(Cl)cccc4Cl)c(=O)c3cn2)cc1	0.052 µM	1.22 µM	10.5 µM	
C[C@@H]1CN(c2ccc(Nc3cc4ncn(-c5c(Cl)cccc5Cl)c(=O)c4cn3)cc2C#N)C[C@H](C)N1	0.163 µM			
N[C@@H]1CCCN(c2ccc(Nc3cc4ncn(-c5c(Cl)cccc5Cl)c(=O)c4cn3)cc2)C1	0.036 µM			
CN(C)CCN(C)c1ccc(Nc2cc3ncn(-c4c(Cl)cccc4Cl)c(=O)c3cn2)cc1	0.07 µM	0.66 µM	9.6 µM	60%
C[C@@H]1CN(c2ccc(Nc3cc4ncn(-c5c(Cl)cccc5Cl)c(=O)c4cn3)cc2)C[C@H](C)N1	0.019 µM	2.68 µM	4.13 µM	
O=c1c2cnc(Nc3ccc(NC4CCNCC4)cc3)cc2ncn1-c1c(Cl)cccc1Cl	0.077 µM	2.47 µM	> 20 µM	
C[C@@H]1CN(c2ccc(Nc3cc4ncn(-c5c(Cl)cccc5Cl)c(=O)c4cn3)cc2CO)C[C@H](C)N1	0.023 µM	0.791 µM	3.23 µM	> 50%
COc1cc(Nc2cc3ncn(-c4c(Cl)cccc4Cl)c(=O)c3cn2)ccc1N1C[C@@H](C)N[C@@H](C)C1	0.052 µM			
CN(CCCN)c1ccc(Nc2cc3ncn(-c4c(Cl)cccc4Cl)c(=O)c3cn2)cc1	0.09 µM			
CN1CCC(Oc2ccc(Nc3cc4ncn(-c5c(Cl)cccc5Cl)c(=O)c4cn3)cc2)CC1	0.093 µM			
CN(C)CCCN(C)c1ccc(Nc2cc3ncn(-c4c(Cl)cccc4Cl)c(=O)c3cn2)cc1	0.142 µM			

More lines, now with the values ahead:

IC50 [1]	IC50 [2]	IC50 [3]	remaining at 1.5 h [4]	Structure (SMILES)
0.073 µM				CN(C)C1CCN(c2ccc(Nc3cc4ncn(-c5c(Cl)cccc5Cl)c(=O)c4cn3)cc2)CC1
0.047 µM	1.33 µM	14.4 µM		CN1CCN(c2ccc(Nc3cc4ncn(-c5c(Cl)cccc5Cl)c(=O)c4cn3)cc2)CC1
0.515 µM				O=c1c2cnc(Nc3ccc(N4CCC(CO)CC4)cc3)cc2ncn1-c1c(Cl)cccc1Cl
0.043 µM	2.05 µM	13.7 µM		O=c1c2cnc(Nc3ccc(N4CCN(CCO)CC4)cc3)cc2ncn1-c1c(Cl)cccc1Cl
0.268 µM				CN1CCN(c2ccc(Nc3cc4ncn(-c5c(F)cccc5Cl)c(=O)c4cn3)cc2)CC1
0.048 µM	0.863 µM	4.23 µM	> 50%	O=c1c2cnc(Nc3ccc(N4CCNCC4)cc3)cc2ncn1-c1c(Cl)cccc1Cl
0.124 µM				CN1CCN(Cc2ccc(Nc3cc4ncn(-c5c(Cl)cccc5Cl)c(=O)c4cn3)cc2)CC1
0.041 µM	1.46 µM	4.68 µM		N[C@H]1CCCN(c2ccc(Nc3cc4ncn(-c5c(Cl)cccc5Cl)c(=O)c4cn3)cc2)C1
	0.095 µM	12.8 µM		C=CCn1c(=O)c2cnc(Nc3ccc(N4CCN(C)CC4)cc3)nc2n1-c1cccc(C(C)(C)O)n1 [ADAVOSERTIB]
